# System: A-498 cells
# Assay: cell cycle analysis (PI, flow cytometry) in A-498
# Assay type: cell-based, human
# Details: 6 µM, 48 h
# Method: The efficient antiproliferative activity of compound 9c on the kidney carcinoma A-498 cell line (Table 2) prompted a further investigation of its mechanistic growth inhibitory action. Thus, the impact of bumetanide analog 9c at 6 µM for 48 h on cell cycle distribution and induction of apoptosis in A-498 cells was next explored. […] Analysis of apoptosis was performed to determine the mode of cell death induced by 9c in A-498 cells. Compound 9c induced both early and late apoptosis in A-498 cells at 6 µM when compared to the untreated control cells (p < 0.01 and p < 0.001, respectively) (Figure 5A). […]
# Figure 4 (A) Effect of compound 9c on the cell cycle and apoptosis in kidney carcinoma cell line A-498. […] Cells were then fixed, stained with propidium iodide (PI), and analyzed by flow cytometry. […] (B) Quantitative analysis of 4N (G2/M), 2N (G0G1), > 2N (S), and < 2N (sub-G1). DNA content was determined with CellQuest software. […]
# A-498 Cells were seeded at a density of 1 × 10^5 cells/well in 24-well plates and treated with compound 9c (6 µM) for 48 h. […] The DNA content of cells (10,000 cells/experimental group) was analyzed by flow cytometer at 488 nm using a FACSCalibur flow cytometer (BD Biosciences, San Jose, CA, USA) and all data were recorded and analyzed using the CellQuest Software (Becton-Dickinson Biosciences, San Jose, CA, USA). […]
compound,measurement,setting,value
CCCCNc1cc(-c2n[nH]c(=S)n2-c2ccc(Br)cc2)cc(S(N)(=O)=O)c1Oc1ccccc1 [Compound 9c],cells in the sub-G1 phase,control 1.3%,25.5%
same,cell population at the G2/M stage,untreated control 10.8%,48.6%

# — PMC7558282, “The Anticancer Activity for the Bumetanide-Based Analogs via Targeting the Tumor-Associated Membrane-Bound Human Carbonic Anhydrase-IX Enzyme” (Pharmaceuticals, 2020)
